Consider one compound from US20070141072A1, “Use of multifunctional transcription factor yin-yang-1 and variants thereof for treating illnesses, especially type 1 diabetes” (ERNST-MORITZ-ARNDT-UNIVERSITAT GREIFSWALD, priority 2002, published 2007).

The subject of this test is calbindin-D28k. Put plainly: Calbindin-D28k protein expression in isolated islets of Langerhans, Western blot. Format: cell-based, rat. The settings on record: increasing calcium concentration in the medium. An excerpt: There were however significant differences in protein expression using Western blot analysis. The calcium-binding protein, calbindin-D28k, was already twice as high in BB.6S rat islets under basal conditions as that of BB/OK rats. […] Calbindin-D28k is a cytosolic calcium-binding protein, which is primarily expressed in the kidney, but also in the pancreas and brain, and which can prevent apoptotic (gene controlled) cell death (41, 42). In functional terms it is supposed that calbindin-D28k is involved in regulation of calcium reabsorption.
Calbindin-D28k protein expression using Western blot analysis under basal conditions and with increasing calcium concentration in the medium.
A general note: A western blot detects proteins with antibodies after separation by electrophoresis.

Take `[Ca+2]` [calcium]: the “protein expression of calbindin-D28k” value by setting is: (BB.6S islets) “clearly increased”; (BB/OK islets) “almost uninfluenced”.
